Test results taken from US20230167068A1, “BENZOPYRAZOLE COMPOUND” (MEDSHINE DISCOVERY INC., priority 2019, published 2023).

Key:
[1] = biological target: T1, CYP3A4 (Homo sapiens, UniProt P08684); test: Human liver microsomal CYP repression experiment; assay type: in vitro ADME
T1 construct: incubation system containing human liver microsomes, probe substrates, and co-factors; tissue Corning Inc. or other suppliers; host or cells: mixed (pooled) human liver microsomes
Experimental: The purpose of the research project was to evaluate the repression of the test sample on human liver microsomal cytochrome P450 isoenzyme (CYP3A4) using a 5-in-1 probe substrate of CYP isoenzyme.
Mixed human liver microsomes (HLM) were purchased from Corning Inc. (Steuben, New York, USA) or other suppliers and stored at temperatures below -70° C. before use.
The diluted series concentration of the test sample was added to the incubation system containing human liver microsomes, probe substrates, and co-factors of the circulating system, and the control without the test sample but with solvent was used as the enzyme activity control (100%). The concentration of metabolites produced by the probe substrate in the sample was determined by liquid chromatography-tandem mass spectrometry (LC-MS/MS). Non-linear regression analysis of the mean percent activity of the test sample versus concentration was performed using SigmaPlot (V. 11). The IC50 values were calculated by a three- or four-parameter inverse logarithmic equation.

[2] = In vivo pharmacokinetic properties study in male SD rats; conditions: rat, plasma, iv 2 mg/kg; for half-life: read-out: T½ (converted); for Vd: read-out: Vdss
Experimental: Experimental purpose: The purpose of this study was to determine the pharmacokinetic parameters of compounds in male SD rats.
Experimental methods: In this project, two male SD rats were intravenously administered with a dose of 2 mg/kg and a concentration of 0.4 mg/mL. Plasma samples were collected at 0 h (before administration) and 0.0833, 0.25, 0.5, 1, 2, 4, 6, 8, 24 h after administration. Then the collected samples were analyzed by LC-MS/MS and the data were collected. The collected analytical data were used to calculate the relevant pharmacokinetic parameters using Phoenix WinNonlin 6.3 software.

T1 sequence (P08684 whole entry): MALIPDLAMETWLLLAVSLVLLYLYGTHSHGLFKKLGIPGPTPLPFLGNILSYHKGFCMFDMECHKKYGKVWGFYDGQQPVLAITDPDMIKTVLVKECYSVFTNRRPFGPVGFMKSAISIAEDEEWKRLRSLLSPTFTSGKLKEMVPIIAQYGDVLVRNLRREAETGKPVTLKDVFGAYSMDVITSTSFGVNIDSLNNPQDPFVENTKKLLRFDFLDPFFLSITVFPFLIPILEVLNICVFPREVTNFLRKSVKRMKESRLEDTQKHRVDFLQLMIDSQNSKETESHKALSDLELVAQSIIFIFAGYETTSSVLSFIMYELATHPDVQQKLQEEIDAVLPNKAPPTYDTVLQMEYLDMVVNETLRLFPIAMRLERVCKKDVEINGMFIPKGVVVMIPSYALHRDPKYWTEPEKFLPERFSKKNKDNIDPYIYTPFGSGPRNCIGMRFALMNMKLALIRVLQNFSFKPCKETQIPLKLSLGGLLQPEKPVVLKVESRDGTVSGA

Row | Structure (SMILES) | repression on CYP3A4 (in words) ([1]; conclusion on Table 3) | IC50 ([1]; mixed human liver microsomes, 5-in-1 probe substrate) | clearance [2] | half-life [2] | Vd [2]
1 | C[C@H](NC(=O)C(C)(F)F)[C@H](Oc1ccc2c(cnn2-c2ccc3nncn3c2)c1)c1cc(F)cc(F)c1 [WX019] | significantly improve the repression of CYP3A4 | 9.12 µM | 9.74 mL/min/kg | 180 min | 1.28 L/kg
2 | C[C@H](NC(=O)C(C)(F)F)[C@H](Oc1ccc2c(cnn2-c2cn(C)nn2)c1)c1cc(F)cc(F)c1 [WX051] |  |  | 9.29 mL/min/kg | 212 min | 2.61 L/kg
